Source: patent US11083714B2, “Selective anti-cancer agent effective for prevention and treatment” (Molecular International Research, Inc., priority 2018, dated 2021)
Entries after “also recorded” stand apart in the source; their conditions may differ.

Tests used:
PANC-1, MIA PaCa, BxPc = experiment: Apoptosis by flow cytometry in pancreatic cancer cell lines; format: cell-based; details: 10 μM and 20 μM
Protocol: FIG. 11. De-ethylflavopereirine induces apoptosis in pancreatic cancer cell lines PANC-1 (top), MIA PaCa (middle), and BxPc (bottom). Following exposure of cells to de-ethylflavopereirine at concentrations of 0.5 μM, 10 μM, and 20 μM, flow cytometry was used to assess the percentage of cells undergoing early apoptosis (clear), late apoptosis (dark), or necrosis (stipple). […] Values are mean±SEM (n=3). *p≤0.05 compared with control group using Student's t-test; **p≤0.01 compared with control group using Student's t-test.

[1] = mouse, in vivo
Protocol: To estimate the maximum tolerated dose of compounds 13-7-2 and 13-9-1 in mice, both compounds were dissolved in PBS and given to SCID mice by oral gavage.
Compound 13-7-2 was administered at a dose of 100 mg/kg, 150 mg/kg, or 200 mg/kg. Each dose group consisted of three mice.
Compound 13-9-1 was administered at a dose of 100 mg/kg, 150 mg/kg, or 200 mg/kg by oral gavage (three mice per dose group).
In a separate dose finding/toxicity test with compound 13-9-1, three mice received escalating doses of 50 mg/kg/day for 3 days, 100 mg/kg/day for 7 days, 200 mg/kg/day for 7 days, and 300 mg/kg/day for 3 days, given by oral gavage. Mice were monitored closely for toxic signs.

[2] = test system: PANC-1 pancreatic cancer cells; experiment: Anchorage independent colony formation in soft agar; format: cell-based; details: 10 μM or 15 μM, 20 days; listed as De-ethylflavopereirine
Excerpt: FIG. 13. Colony formation in soft agar of PANC-1 pancreatic cancer cells with or without de-ethylflavopereirine treatment.
Anchorage independent colony formation assay in soft agar was used to test long-term survival (20 days) of tumorigenic pancreatic cancer cells after exposure to de-ethylflavopereirine. PANC-1 cells formed colonies at the rate of 12% when untreated. […] No tumorigenic cancer cells survived after exposure to compound 13-9-1 (FIG. 13).

PANC-1 cells [3] = experiment: CD24/CD44/EpCam triple positive cells by flow cytometry; format: cell-based; details: 2.5, 5, 10 μM
Protocol: FIG. 24. De-ethylflavopereirine decreased the percentage of cancer stem cells in a pancreatic cancer cell population (24 hours). The panels show CD44 (PE-Cy7) positive and EpCam (APC) positive cells in the CD24 (PE) gate at concentrations of 0 μM (upper left), 2.5 μM (upper right), 5 μM (lower left), and 10 μM (lower right) de-ethylflavopereirine after 24 hr. “Q1”=CD24^+/CD44^+, “Triple+”=CD24^+/CD44^+/EpCam^+, “Q3”=CD24^+, and “Q4”=CD24^+/EpCam^+.
FIG. 25. De-ethylflavopereirine decreased the percentage of cancer stem cells in a pancreatic cancer cell population (48 hours). The panels show CD44 (PE-Cy7) positive and EpCam (APC) positive cells in the CD24 (PE) gate at concentrations of 0 μM (upper left), 2.5 μM (upper right), 5 μM (lower left), and 10 μM (lower right) de-ethylflavopereirine after 48 hr. “Q1”=CD24^+/CD44^+, “Triple+”=CD24^+/CD44^+/EpCam^+, “Q3”=CD24^+, and “Q4”=CD24^+/EpCam^+.
Cancer stem cells can be identified by specific cell-surface markers. A combination of three markers CD24, CD44, and EpCam is used for detection of pancreatic cancer stem cells. These markers can be labeled by different fluorophores and detected simultaneously by flow cytometry. Triple positive cells (i.e., cells that express all three markers) are regarded as pancreatic cancer stem cells. De-ethylflavopereirine reduced the percentage of pancreatic cancer stem cells in pancreatic cancer cell populations. PANC-1 cells were treated with 2.5 μM, 5.0 μM, and 10 μM concentrations of the compound for 24 hours or 48 hours. Triple positive cells were identified in quadrant Q2 (“Triple+”) of the flow cytometry output.

PANC-1 cells [4] = experiment: Spheroid formation (cancer stem cells); format: cell-based
Protocol: FIG. 22. PANC-1 cell suspensions were treated at concentrations of 0 μM (negative control), 2.5 μM, 5.0 μM, and 10.0 μM de-ethylflavopereirine then examined for the presence of spheroids.
FIG. 23. Primary spheroids from first round were collected and seeded for secondary spheroid formation. Following treatment with concentrations of 0 μM (negative control), 2.5 μM, 5.0 μM, and 10.0 μM de-ethylflavopereirine, suspensions were examined.
In vitro, cancer stem cells form spheroids: clusters of cancer cells surrounding a cancer stem cell. Inhibition of spheroid formation is a test for anti-cancer stem cell activity of a compound.

[5] = Plasma concentrations after intravenous or oral administration; format: in vivo, mice
Protocol: FIG. 15. Plasma concentrations of de-ethylflavopereirine following intravenous or oral administration: intravenous at 20 mg/kg (lozenges) having a peak at approximately 2 hours, oral at 100 mg/kg (squares), or oral at 200 mg/kg (triangles) having a peak at approximately 4 hours.
Oral administration was chosen for the mouse experiments because administration is simplified by avoiding the need for tail vein injections.

MRC-5 = experiment: MTT cell viability, normal control cell line; format: cell-based, human; details: MRC-5, 48 hr
Protocol: FIG. 7. Dose-response curves for cell viability of human ovarian cancer cell lines OVCAR-5 (triangles), SHIN-3 (squares), and OVCAR-8 (lozenges) exposed to de-ethylflavopereirine. Cells were cultured in the presence of increasing concentrations of the compound for 48 hr and cell viability was determined by MTT assay. MRC-5 (crosses), an immortalized, normal human […] cell line, was used as a control.
FIG. 8. Dose-response curves for cell viability of human pancreatic cancer cell lines MIA PaCa (squares), PANC-1 (lozenges), BxPc (crosses), and AsPc (triangles) exposed to de-ethylflavopereirine. Cells were cultured in the presence of increasing concentrations of the compound for 48 hr and cell viability was determined by MTT assay. MRC-5 (asterisks) was used as a control.
De-ethylflavopereirine was tested for its activity against ovarian, pancreatic, brain, and colon cancer cell lines. […] Cytotoxicity is assayed by reducing a yellow tetrazolium dye, 3-(4,5-dimethylthiazol-2-yl)-2,5-diphenyltetrazolium bromide (MTT), to insoluble purple formazan. The MTT assay is a colorimetric assay for determining the number of viable cells.

SMILES: c1ccc2c(c1)[nH]c1c2cc[n+]2ccccc12 [Compound 13-9-1, 12H-indolo[2,3-a]quinolizin-5-ium]
- induction of apoptosis (PANC-1, MIA PaCa, BxPc): induction is dose dependent
- induction of apoptosis (PANC-1, MIA PaCa, BxPc; listed as De-ethylflavopereirine): Early apoptosis is the predominant result
- tolerated dose, oral administration ([1]; SCID): ≥ 300 mg/kg
- deaths ([1]; SCID, po, 200 mg/kg, 48 hr): One mouse in the 200 mg/kg group died 15 min after the administration of the compound (apparently due to trauma caused by oral gavage)
- toxic signs ([1]; po, 50 mg/kg/day): No abnormality was observed
- colony formation in soft agar [2]: completely inhibited formation of PANC-1 colonies; also recorded: completely inhibited colony formation
- CD24+/CD44+/EpCam+ (triple positive) cell population (PANC-1 cells [3]; 24 hr, listed as De-ethylflavopereirine): Reduction
- CD24+/CD44+/EpCam+ (triple positive) cell population (PANC-1 cells [3]; 24 hr, listed as de-ethylflavopereirine): reduced the CD24^+/CD44^+/EpCam^+ cell population
- CD24+/CD44+/EpCam+ (triple positive) cell population (PANC-1 cells [3]; 48 hr): reduced the CD24^+/CD44^+/EpCam^+ cell population
- secondary spheroid formation (PANC-1 cells [4]; 2.5 μM): significant inhibition
- primary spheroid formation (PANC-1 cells [4]; 5 μM and 10 μM): significantly inhibited primary spheroid formation
- secondary spheroid formation (PANC-1 cells [4]; 5 μM and 10 μM): completely inhibited
- time of peak plasma concentration ([5]; intravenous at 20 mg/kg): approximately 2 hours
- time of peak plasma concentration ([5]; oral at 200 mg/kg (sentence also lists oral at 100 mg/kg)): approximately 4 hours
- toxicity to noncancerous cells compared with cancer cells (MRC-5): significantly less toxic
